{
  "source": "paper PMC11928584",
  "about": "“H105A peptide eye drops promote photoreceptor survival in murine and human models of retinal degeneration” (Communications Medicine, 2025)",
  "tested_on": "retinal function of rd10 mice",
  "assay": "Electroretinogram (scotopic a- and b-wave), rd10 mice",
  "assay_type": "in vivo, mouse",
  "experimental": "Electroretinogram (ERG) for rd10 and rd10/Serpinf1^-/- mice were dark-adapted overnight and recorded in both eyes of each animal using an Espion E2 system with ColorDome (Diagnosys LLC) with a heated surface. Briefly, pupils were dilated with 1% tropicamide (Akorn, NDC: 17478-101-12) for 10 min and mice were anesthetized with intraperitoneal injection of Zetamine™ (Ketamine hydrochloride injection, USP; VetOne, NDC 13985-584-10) at 92.5 mg/kg, and AnaSed® (xylazine injection, Akorn Pharmaceuticals, NDC 59399-110-20) at 5.5 mg/kg. Mice were placed on the heated surface and electrodes were placed in the mouth and a subdermal platinum needle electrode was placed in the back of the mouse to serve as ground. Responses were elicited with increasing light impulses with intensity from 0.0001 to 10 cd-seconds per meter squared (cd.s/m^2). Amplitudes for a-wave were measured from stimulus to the trough of the a-wave and b-wave amplitudes were measured from a-wave to b-wave trough or peak. The values from the a and b waves for both eyes were exported to Microsoft Excel to obtained amplitude values for each mouse.\nFig. 5 Effect of daily eyedrops of PEDF peptides on ERG a-wave and b-wave retinal function. a Illustration of the experimental timeline of peptide application. RE and LE refer to the right and left eyes, respectively. Representative ERG waveforms for rd10 (b) and rd10/Serpinf1^-/- (c) mice at P21 in response to a light flash (1 cd.s/m²). Amplitude (y-axis) is plotted against time in milliseconds (ms, x-axis). Treatments are indicated to the right of each plot and are color coded, with control wild type C57BL/6 J mice without peptide treatment shown in blue. A-wave and b-wave are indicated by arrows. Photoreceptor a-wave amplitudes. Averages of photoreceptor a-wave amplitudes for rd10 (d) and rd10/Serpinf1^-/- (e) mice as a function of light intensity (cd/s.m², x-axis). Responses of animals treated with 17-mer are shown in green, H105A in black, and vehicle (HBSS) in red. Wildtype responses are shown in blue. Bipolar cell b-wave amplitudes. Averages of bipolar cell b-wave amplitudes for rd10 (f) and rd10/Serpinf1^-/- (g) mice as a function of light intensity (cd/s.m², x-axis), with treatments as indicated in panels. The number of mice evaluated for the data shown in Panels d-g was five (n = 5) for each rd10, rd10/Serpinf1^-/- and wild type. Each data point represents the average ± SD of each genotype, analyzed by ANOVA with Dunnett’s multiple comparisons. Statistical significance between H105A and vehicle is indicated by ##p ≤ 0.01, ###p ≤ 0.001, ####p ≤ 0.0001, and between H105A and 17-mer by **p ≤ 0.01, ***p ≤ 0.001, ****p ≤ 0.0001.",
  "key": {"[1]": {"conditions": "eye drops every other day P15-P23, ERG at P25"}},
  "note": "Where a SMILES comes first, the peptide text is derived from it.",
  "data": [
    {"smiles": "CC[C@H](C)[C@H](NC(=O)[C@H](CC(C)C)NC(=O)[C@H](CC(=O)O)NC(=O)[C@H](Cc1ccc(O)cc1)NC(=O)[C@H](Cc1ccc(O)cc1)NC(=O)[C@H](CC(C)C)NC(=O)[C@H](C)NC(=O)[C@H](CCCNC(=N)N)NC(=O)[C@H](C)NC(=O)[C@@H](NC(=O)[C@@H](NC(=O)[C@H](CO)NC(=O)[C@H](CCC(=O)O)NC(=O)[C@@H](NC(=O)[C@H](CCCNC(=N)N)NC(=O)[C@@H](N)CCC(N)=O)[C@@H](C)O)[C@@H](C)CC)[C@@H](C)CC)C(=O)N[C@@H](CO)C(=O)O", "note": "[H105A] (H-QRTESIIARALYYDLIS-OH)", "values": [
      {"measurement": "ERG response to low intensity light", "setting": "daily eye drops 5 µl of 1 mg/ml P15-P24, ERG at P25", "result": "improved rod photoreceptor function"},
      {"measurement": "ERG a-wave", "setting": "[1]", "result": "an improvement in a-wave of ERG"},
      {"measurement": "ERG b-wave", "setting": "[1]", "result": "no significant effect"},
      {"measurement": "function of rd10 photoreceptors", "setting": "eye drops every other day, endpoint extended to P25", "result": "improved the function of rd10 photoreceptors"}
    ]}
  ]
}
